{"source": "patent US20090082260A1", "about": "“COMBINATION OF AN IMMUNOSUPPRESSANT AND A PPAR GAMMA AGONIST FOR THE TREATMENT OF AN UNDESIRABLE IMMUNE RESPONSE” (priority 2005, published 2009)", "system": "cardiac allograft", "assay": "Cardiac allograft rejection in rats: long term graft survival", "type": "in vivo, rat", "conditions": "for Mean Survival Time, extended data set: Table 10b", "experimental": "Animals were obtained from the Animal Resources Centre, Australia. The rats were allowed free access to food and water in a 12-hour light/12-hour dark cycled room. The experimental protocol was approved by the Committee on the Use of Live Animals in Teaching and Research, University of Hong Kong.\nSix rats were used in each treatment group.\nRecipient rats in TGA received hearts harvested from donor […] strain rats.\nGraft survival was analysed using a chi-squared test.\nExample 3 was extended to include a number of alternative treatment groups and additional numbers of animals in certain of the treatment groups already investigated.\nTable 10b below summarises the graft survival rates, including both the original and supplemental data.", "data": [{"smiles": "CN(CCOc1ccc(CC2SC(=O)NC2=O)cc1)c1ccccn1", "note": "(centres unmarked) [rosiglitazone, 5-[4-[2-(N-methyl-N-(2-pyridyl)amino)ethoxy]benzyl]thiazolidine-2,4-dione]", "values": [{"measurement": "Graft survival compared with untreated subjects (TGE)", "setting": "PPAR-gamma agonist alone at a high dose (TGF, 20 mg/kg/day)", "result": "does not show any notable difference"}, {"measurement": "Graft survival compared with untreated subjects (TGE)", "setting": "PPAR-gamma agonist alone at a medium dose (TGB, 5 mg/kg/day)", "result": "does not show any notable difference"}, {"measurement": "Mean Survival Time", "setting": "Table 10, TGA cyclosporin A 20 mg/kg/day i.p. 14 days, TGB rosiglitazone 5 mg/kg/day oral to day 120, TGC both, n=6", "result": 15.8, "unit": "days"}, {"measurement": "Mean Survival Time, extended data set", "setting": "TGA cyclosporin A 20 mg/kg/day i.p. 14 days, TGB rosiglitazone 5 mg/kg/day oral, TGC both", "result": 15.8, "unit": "days"}, {"measurement": "Mean Survival Time, extended data set", "setting": "TGF high dose rosiglitazone 20 mg/kg/day oral only, n=6", "result": 18.8, "unit": "days"}]}]}
